Assay results as given in patent publication US20230303572A1, “18-MC SALT FORMS” (Mind Medicine, Inc., priority 2022, published 2023).
Counter-ions that a name gives are not always drawn.

Assays:
[1] = system: cocaine-seeking or "craving" behaviors; conditions: animal model; cited from earlier work
[2] = system: substance use models (nicotine, alcohol, morphine, cocaine and methamphetamine); conditions: animal studies; dosages as low as 10 mg/kg i.p.; cited from earlier work
[3] = Physical form stability on storage at RT, air drying or exposure to ambient conditions (XRPD); format: physicochemical
From the text: (§1) For XRPD analysis, a PANalytical Empyrean and X′ Pert3 X-ray powder diffract meter was used.

[4] = Heating experiments and VT-XRPD (N2 drying, heating, cooling back): form change; format: physicochemical; conditions: for form conversion, summary statement: after desolvation
From the text: as §1

[5] = Relative thermodynamic stability of HCl salt forms (desolvation and form conversion data); format: physicochemical
Method: Starting from HCl salt materials with different forms, a total of 100 polymorph screening experiments was performed using different crystallization methods including salt formation by liquid vapor diffusion/slurry at elevated temperature, evaporation at RT/high temperatures, slurry and reverse anti-solvent addition at different temperatures, slow/crash cooling, polymer induced crystallization and grinding. All the resulting solids were isolated for XRPD test, and new forms were further characterized by TGA, DSC, ^1H NMR and HPLC/ IC.
An additional polymorph screening was performed for 18-MC HCl salt.

| Structure (SMILES) | effect on cue-induced cocaine-seeking [1] | effect on drug self-administration [2] | form change after storage (XRPD) ([3]; storage at RT for ~3 days) | form change after N2 drying (VT-XRPD) ([4]; N2-drying for 20 min at 30° C.) | form conversion, summary statement [4] | form change after heating (XRPD/VT-XRPD) ([4]; heating to 100° C.) | form change after heating (VT-XRPD) ([4]; heating to 180° C. under N2 protection) | Form after desolvation ([5]; RT storage or heat to 100° C. under N2) | change after air drying ([3]; air drying at RT, time not stated) | form change after heating (XRPD) ([4]; heating to 150° C.) | Form after desolvation ([5]; solvates of HCl salt, form after desolvation) |
| --- | --- | --- | --- | --- | --- | --- | --- | --- | --- | --- | --- |
| COCC[C@H]1CC2CN3CCc4c([nH]c5ccccc45)[C@](C(=O)OC)(C2)[C@H]13 [18-MC, 18-methoxycoronaridine] | attenuate effects of the environmental cues | significantly reduces drug self-administration | – | – | – | – | – | – | – | – | – |
| COCC[C@H]1CC2CN3CCc4c([nH]c5ccccc45)[C@](C(=O)OC)(C2)[C@H]13 [HCl salt Type M, 18-methoxycoronaridine] | – | – | extra peaks of HCl salt Type A | no form change | converted to HCl salt Type A | peaks of HCl salt Type A were observed | most diffraction peaks were consistent with HCl salt Type A with extra peak similar to HCl salt Type K | HCl salt Type A** | – | – | – |
| COCC[C@H]1CC2CN3CCc4c([nH]c5ccccc45)[C@](C(=O)OC)(C2)[C@H]13 [HCl salt Type S, 18-methoxycoronaridine] | – | – | – | – | converted to HCl salt Type A | – | – | – | turned to be gel like | most diffraction peaks were consistent with HCl salt Type A | HCl salt Type A |
